Measured values reported in US20090312407A1, “Synthetic Flavonoids and Pharmaceutical Compositions and Therapeutic Methods of Treatment of Cancer and other Pathologies” (priority 2007, published 2009).
Values joined by “and” are separate entries in the source; they are usually repeats but may differ in a detail not shown here. Identical values can stand only once. “Also recorded” adds a separate entry of the source. Like-named read-outs stand apart in the source and are kept apart here.

Key:
[1] = system: multidrug resistant cells; conditions: collateral sensitivity; cited from earlier work
[2] = system: benzodiazepine receptor; conditions: cited from earlier work
[3] = attributed to 3-OH group; cited from earlier work
[4] = system: H-9 cells; experiment: Cytotoxicity on H-9 cells; type: cell-based; conditions: for Cells (×10^4) Mean / Cells (×10^4): Table 3, 12-05 to 12-09/2005; for inhibition at 5 µg/mL: H9, 5 μg/ml; for inhibition at 10 µg/mL: H9, 10 μg/ml; for inhibition at 50 µg/mL: H9, 50 μg/ml
Excerpt: (§1) The purified and identified analogs were subjected to in vitro biological testing.
These three congeners were further evaluated in H9 and PC3 cells. AZT was employed as a positive control in all of these experiments.

[5] = system: MCF-7 cells; experiment: Cytotoxicity on MCF-7 cells; type: cell-based; conditions: for Cells (×10^4) Mean / Cells (×10^4): Table 6, 11-14 to 11-18/2005; for % Inhibition / inhibition at 1 µg/mL / inhibition at 5 µg/mL / inhibition at 10 µg/mL / inhibition at 50 µg/mL: vs 2% DMSO, Table 6; for inhibition at 1 µg/mL / inhibition at 5 µg/mL / inhibition at 10 µg/mL / inhibition at 50 µg/mL: Homo sapiens; for inhibition at 1 µg/mL: MCF7, 1 μg/ml; for inhibition at 5 µg/mL: MCF7, 5 μg/ml; for inhibition at 10 µg/mL: MCF7, 10 μg/ml; for inhibition at 50 µg/mL: MCF7, 50 μg/ml
[6] = system: PC-3 cells; experiment: Cytotoxicity on PC-3 cells; type: cell-based; conditions: PC-3 cells; same conditions as AZT
Excerpt: as §1

[7] = Homo sapiens, single count, vs 2% DMSO, Table 3, read-out: % Inhibition
[8] = Homo sapiens, vs 2% DMSO, Table 3, read-out: % Inhibition Mean
[9] = single count, read-out: % Inhibition

O=c1cc(-c2ccccc2)oc2ccc3ccccc3c12 [β-naphthoflavone]
toxicity to multidrug resistant cells vs drug-sensitive counterparts [1]: considerably more toxic to multidrug resistant cells than to their drug-sensitive counterparts

O=c1cc(-c2ccccc2)oc2ccc(Br)cc12 [6-bromoflavone]
activity as benzodiazepine receptor ligand compared to diazepam [2]: close or higher than that of diazepam

O=c1c(O)c(-c2ccc(O)c(O)c2)oc2cc(O)cc(O)c12 [quercetin]
mutagenic properties [3]: some mutagenic properties

O=c1cc(-c2cccc([N+](=O)[O-])c2)oc2ccc(Br)cc12 [6-bromo-3′-nitroflavone]
activity as benzodiazepine receptor ligand compared to diazepam [2]: close or higher than that of diazepam

COc1ccc(C=CC(=O)c2cc(Br)cc(Br)c2O)cc1OC (stereo in doubt) [CHBr 2M]
Cells (×10^4) Mean ([4]; 1 μg/ml): 47.42 ×10^4 | % Inhibition ([4]; 1 μg/ml, single count, vs 2% DMSO, Table 3): 9.45% and 1.49% and 5.97% | Cells (×10^4) ([4]; 1 μg/ml, single count): 45.5 ×10^4 and 49.5 ×10^4 and 47.3 ×10^4 | Cells (×10^4) Mean ([4]; 5 μg/ml): 25.33 ×10^4 | % Inhibition ([4]; 5 μg/ml, single count, vs 2% DMSO, Table 3): 50.75% and 48.76% | Cells (×10^4) ([4]; 5 μg/ml, single count): 25.5 ×10^4 and 24.8 ×10^4 and 25.8 ×10^4 | Cells (×10^4) Mean ([4]; 10 μg/ml): 17.58 ×10^4 | % Inhibition ([4]; 10 μg/ml, single count, vs 2% DMSO, Table 3): 67.68% | Cells (×10^4) ([4]; 10 μg/ml, single count): 18.3 ×10^4 and 16.3 ×10^4 | Cells (×10^4) Mean ([4]; 50 μg/ml): 11.58 ×10^4 | % Inhibition ([4]; 50 μg/ml, single count, vs 2% DMSO, Table 3): 77.11% | Cells (×10^4) ([4]; 50 μg/ml, single count): 11.8 ×10^4 and 11.5 ×10^4 | inhibitory activity / growth inhibition compared to AZT ([4]; H-9 cells, same conditions as AZT): much superior; also recorded: as good or somewhat better | inhibition at 1 µg/mL ([4]; Homo sapiens, H9, 1 μg/ml, vs 2% DMSO, Table 3, read-out: % Inhibition Mean): 5.64% | inhibition at 5 µg/mL [4, 7]: 49.2% | inhibition at 5 µg/mL [4, 8]: 49.6% | inhibition at 10 µg/mL [4, 7]: 63.7% | inhibition at 10 µg/mL [4, 8]: 65% | inhibition at 50 µg/mL [4, 7]: 76.6% | inhibition at 50 µg/mL [4, 8]: 77% | Cells (×10^4) Mean ([5]; 1 μg/ml): 49.08 ×10^4 | % Inhibition ([5]; 1 μg/ml, single count): 10.95% and 18.73% | Cells (×10^4) ([5]; 1 μg/ml, single count): 48.8 ×10^4 and 51.5 ×10^4 and 47.0 ×10^4 | Cells (×10^4) Mean ([5]; 5 μg/ml): 26.25 ×10^4 | % Inhibition ([5]; 5 μg/ml, single count): 56.34% and 54.18% | Cells (×10^4) ([5]; 5 μg/ml, single count): 27.0 ×10^4 and 25.3 ×10^4 and 26.5 ×10^4 | Cells (×10^4) Mean ([5]; 10 μg/ml): 7.92 ×10^4 | % Inhibition ([5]; 10 μg/ml, single count): 84.44% and 87.03% | Cells (×10^4) ([5]; 10 μg/ml, single count): 7.3 ×10^4 and 9.0 ×10^4 and 7.5 ×10^4 | Cells (×10^4) Mean ([5]; 50 μg/ml): 0.75 ×10^4 | % Inhibition ([5]; 50 μg/ml, single count): 98.27% and 99.14% | Cells (×10^4) ([5]; 50 μg/ml, single count): 0.8 ×10^4 and 1.0 ×10^4 and 0.5 ×10^4 | inhibition at 1 µg/mL [5, 9]: 15.7% | inhibition at 1 µg/mL ([5]; read-out: % Inhibition Mean): 15.1% | inhibition at 5 µg/mL [5, 9]: 53.3% | inhibition at 5 µg/mL ([5]; read-out: % Inhibition Mean): 54.6% | inhibition at 10 µg/mL [5, 9]: 87.5% | inhibition at 10 µg/mL ([5]; read-out: % Inhibition Mean): 86.3% | inhibition at 50 µg/mL [5, 9]: 98.7% | inhibition at 50 µg/mL ([5]; read-out: % Inhibition Mean): 98.7% | inhibitory activity / growth inhibition compared to AZT ([5]; MCF-7 cells, same conditions as AZT): much superior; also recorded: as good or somewhat better | cytotoxic activities on MCF-7 cells ([5]; different drug concentrations): good cytotoxic activities | inhibitory activity / growth inhibition compared to AZT [6]: much superior; also recorded: as good or somewhat better
